Assay [1] relates to rats with rheumatoid arthritis. Briefly: Complete Freund adjuvant induced rheumatoid arthritis model. The following applies: Diclofenac sodium 10 mg/kg orally. In kind it is in vivo, Wistar rat.
Method: Rat IgG and complete Freund adjuvant are from Sigma. Diclofenac sodium enteric-coated tablets are from Beijing Novartis Pharma Ltd. RF detection kit is from Nanjing JianCheng Bioengineering Institute. • 2. Animal: 50 healthy and mature Wistar rat, both male and female, body weight 150˜200 g are provided by Wuhan University Laboratory Animal Center, China.
Diclofenac sodium positive control group were given 10 mg/kg Diclofenac sodium orally. Normal control group and model group were Intra-peritoneally injected equal amount of saline. The injections were performed once per day. After measurement of right foot volume on day 0, 0.1 ml complete Freund adjuvant was subcutaneously injected into right ankle. On day 21, the right foot volume was measured after the last injection. Rats were sacrificed with ether inhalation after taking blood samples. The blood samples were centrifuged to get serum for the detection of rheumatoid factor (RF).
Rheumatoid factors RF: 100 μl serum were used with RF detection kit.
In assay [2] the test system is folate receptor transfected MCF-7 cells. Briefly: Breast cancer model: folate receptor transfected MCF-7 cells injected subcutaneously in mice, tumor volume and mean survival time. In kind it is in vivo, nude mice.
Method: Animal: 50 healthy and mature female nude mice, body weight 18-22 g are provided by Nanjing University Model Animal Center.
By weight, the mice were randomly divided into normal control group, model group, Epirubicin positive control group, FIG 5 mg/kg group and 40 mg/kg group, FGIG 5 mg/kg group and 40 mg/kg group. 7 days before the beginning of the experiment, the mice were maintained with feed without folic acid. From day 0, model group, epirubicin positive control group, FIG 5 mg/kg group or 40 mg/kg group and FGIG 5 mg/kg group or 40 mg/kg group were subcutaneously injected with folate receptor transfected MCF-7 cells (1×10^6) each. From day 5, FIG 5 mg/kg group and FIG 40 mg/kg group were intra-peritoneally injected with FIG 5 mg/kg and 40 mg/kg, respectively). FGIG 5 mg/kg group and FGIG 40 mg/kg group were intra-peritoneally injected with FGIG (5 mg/kg and 40 mg/kg, respectively). Epirubicin positive control group were intra-peritoneally injected with Epirubicin (200 mg/kg). Normal control group and model group were intra-peritoneally injected equal amount of saline. The injections were performed once time every four days. 15 days after injection, the mice were fasting. The next day after treatment, tumor volume was measured with vernier caliper and mean survival time was also calculated.
Volume: solid tumor volume was calculated using the following formula: V=0.5×L×W×H.
The test system of assay [3] is mice with inflammatory bowel disease. Kind of assay: Acetic acid induced colitis (inflammatory bowel disease model). It counts as in vivo, Kunming mice. The following applies: Mesalazine 600 mg/kg orally.
Method: Mesalazine SR Granules are from Ethypharm (France). MPO detection kit is from Nanjing Jian-Cheng Bioengineering Institute. • 2. Animal: 50 healthy and mature male Kunming mice, body weight 18-22 g are provided by Nanjing University model animal center.
Mesalazine positive control group were given 600 mg/kg Mesalazine orally. Control group and model groups were i.p. injected with equal amount of saline. The injections were performed once per day.
Acetic acid stimulation was used to induce colitis. The mice were fasting on day 9, and on day 10, were anaesthetized with ether inhalation. Before injection, the intestinal was cleaned, with a polyethylene pipe containing 0.1 ml 6% acetic acid inserted about 1.5 cm into the anus.
Colon macroscopic damage index (CMDI): The entire colon was taken and scissored along the mesenteric. The adhesion, ulcer and congestion were scored by naked eye observation according to the Table 7. • 2. Myeloperoxidase (MPO): The tissues were weighted and homogenized (1:19, weight/volume) in Tris buffer. After homogenization and repeated freezing and thawing, the tissues were made to 5% homogenate. MPO detection was performed according to kit manufacturer's instructions and the protein level was detected using the Lowry method.

SMILES strings stand for the structures. Marks after values point to notes of the source that are not given here.

For `O=C(O)Cc1ccccc1Nc1c(Cl)cccc1Cl` [Diclofenac sodium], in assay [1] (day 21), the Joint injury score turned out to be 0.6 ± 0.22. In assay [1] (rheumatoid factor in serum), the “RF” value stood at 15.2 ± 1.99 pg/mL. Further, in assay [1] (right foot, day 21 vs day 0), the “Toe volume difference” value worked out at 0.090 ± 0.052 mL.

In the case of `COc1cccc2c1C(=O)c1c(O)c3c(c(O)c1C2=O)C[C@@](O)(C(=O)CO)C[C@@H]3O[C@H]1C[C@H](N)[C@@H](O)[C@H](C)O1` [Epirubicin], the “Mean survival time (days)” value in assay [2] (Epirubicin 200 mg/kg i.p.) was 9 ^▴▴ days. Besides, in assay [2] (Epirubicin 200 mg/kg i.p. every four days, day 16), the “Volume of tumor (cm^3)” value is 6.18 ± 1.34 ^▴▴ cm^3.

With `Nc1ccc(O)c(C(=O)O)c1` [Mesalazine], the “Colon coefficient (g/100 g)” value in assay [3] is 1.21 ± 0.13 g/100 g. Further, the “MPO (U/mg · pro.)” value in assay [3] (colon tissue) amounted to 2.42 ± 0.11 U/mg · pro. The compound also came in with an Inflammation rating level in assay [3] (score per Table 7) of 1.9 ± 0.5.
